According to US12712052B2, “Method and system to identify natural products from mass spectrometry and genomics data” (priority 2021, dated 2026):
Converted amounts (≈) assume the structure as drawn. Read-outs that look alike come from different tables or passages of the source. Starred links: 1 amine or outer side, 2 acyl side, 3 side chain; linkers in the order of their positions; H or OH if unused. Positions of bridges follow the written chain, without caps; N, C: chain ends. Non-standard residues stand in square brackets, D forms with d. Residues, ends and D or L forms follow the SMILES beside them. *: point of attachment. hTyr(3S-OH,4S-OH,3'-OSO3H) = N[C@H](C(=O)O)[C@H](O)[C@@H](O)c1ccc(O)c(OS(=O)(=O)O)c1; pTerphenylCO(4''-OnC5H11) = CCCCCOc1ccc(-c2ccc(-c3ccc(C(=O)*)cc3)cc2)cc1; Orn(4R-OH,5R-OH) = O=C([C@H](C[C@@H](O)[C@@H](O)N[*:3])N[*:1])[*:2]; hTyr(3S-OH,4S-OH) = N[C@H](C(=O)O)[C@H](O)[C@@H](O)c1ccc(O)cc1; Pro(3S-OH,4S-Me) = C[C@H]1CN[C@H](C(=O)O)[C@H]1O; X1 = CCCCCOc1ccc(-c2cc(-c3ccc(C(=O)*)cc3)no2)cc1; Gln(3R-OH) = NC(=O)C[C@@H](O)[C@H](N)C(=O)O; Hyp = O=C(O)[C@@H]1C[C@@H](O)CN1

Assays:
[1] = test system: C. auris CDC #0387; assay: MIC against C. auris CDC #0387; format: cell-based, Candida auris; details: for MIC: Candidozyma auris, read-out: minimum inhibitory concentration (MIC)
Method: (§1) Direct bioactivity screening experiments of CHM-752 are performed against Candida pathogens (Table 13).

[2] = test system: C. albicans ATCC 90028; assay: MIC against C. albicans ATCC 90028; format: cell-based, Candida albicans; details: for MIC: Candida albicans
Method: as §1

[3] = test system: C. glabrata CDC #0318; assay: MIC against C. glabrata CDC #0318; format: cell-based; details: for MIC: Nakaseomyces glabratus, read-out: minimum inhibitory concentration (MIC)
Method: as §1

[4] = test system: C. auris CDC #0389; assay: MIC against C. auris CDC #0389; format: cell-based, Candida auris; details: for MIC: Candidozyma auris, read-out: minimum inhibitory concentration (MIC)
Method: as §1

[5] = test system: C. auris CDC #0383; assay: MIC against C. auris CDC #0383; format: cell-based, Candida auris; details: for MIC: Candidozyma auris, read-out: minimum inhibitory concentration (MIC)
Method: as §1

[6] = test system: C. auris CDC #0381; assay: MIC against C. auris CDC #0381; format: cell-based, Candida auris; details: for MIC: Candidozyma auris, read-out: minimum inhibitory concentration (MIC)
Method: as §1

[7] = test system: C. glabrata CDC #0315; assay: MIC against C. glabrata CDC #0315; format: cell-based; details: for MIC: Nakaseomyces glabratus, read-out: minimum inhibitory concentration (MIC)
Method: as §1

[8] = test system: C. glabrata CDC #0325; assay: MIC against C. glabrata CDC #0325; format: cell-based; details: for MIC: Nakaseomyces glabratus, read-out: minimum inhibitory concentration (MIC)
Method: as §1

[9] = test system: C. auris CDC #0384; assay: MIC against C. auris CDC #0384; format: cell-based, Candida auris; details: for MIC: Candidozyma auris, read-out: minimum inhibitory concentration (MIC)
Method: as §1

[10] = test system: C. albicans MYA-574; assay: MIC against C. albicans MYA-574; format: cell-based, Candida albicans; details: for MIC: Candida albicans
Method: as §1

[11] = test system: C. auris CDC #0390; assay: MIC against C. auris CDC #0390; format: cell-based, Candida auris; details: for MIC: Candidozyma auris, read-out: minimum inhibitory concentration (MIC)
Method: as §1

[12] = test system: C. auris CDC #0385; assay: MIC against C. auris CDC #0385; format: cell-based, Candida auris; details: for MIC: Candidozyma auris, read-out: minimum inhibitory concentration (MIC)
Method: as §1

[13] = test system: C. glabrata ATCC 36583; assay: MIC against C. glabrata ATCC 36583; format: cell-based; details: for MIC: Nakaseomyces glabratus, ATCC36583, read-out: minimum inhibitory concentration (MIC)
Method: as §1

[14] = test system: C. glabrata CDC #0321; assay: MIC against C. glabrata CDC #0321; format: cell-based; details: for MIC: Nakaseomyces glabratus, read-out: minimum inhibitory concentration (MIC)
Method: as §1

[15] = ATCC90028, read-out: minimum inhibitory concentration (MIC)
[16] = ATCC90028, C. albicans ATCC 90028, read-out: minimum inhibitory concentration (MIC)
[17] = MYA574, C. albicans MYA-574, read-out: minimum inhibitory concentration (MIC)

| SMILES | MIC [1] [µg/mL] | MIC [2, 15] [µg/mL] | MIC [3] [µg/mL] | MIC [4] [µg/mL] | MIC [5] [µg/mL] | MIC [6] [µg/mL] | MIC ([1]; C. auris CDC #0387) [µg/mL] | MIC [2, 16] [µg/mL] | MIC ([3]; C. glabrata CDC #0318) [µg/mL] | MIC ([4]; C. auris CDC #0389) [µg/mL] | MIC ([5]; C. auris CDC #0383) [µg/mL] | MIC ([6]; C. auris CDC #0381) [µg/mL] | MIC ([7]; C. glabrata CDC #0315) [µg/mL] | MIC ([8]; C. glabrata CDC #0325) [µg/mL] | MIC ([9]; C. auris CDC #0384) [µg/mL] | MIC [10, 17] [µg/mL] | MIC ([11]; C. auris CDC #0390) [µg/mL] | MIC ([12]; C. auris CDC #0385) [µg/mL] | MIC [13] [µg/mL] | MIC ([14]; C. glabrata CDC #0321) [µg/mL] | further results |
| --- | --- | --- | --- | --- | --- | --- | --- | --- | --- | --- | --- | --- | --- | --- | --- | --- | --- | --- | --- | --- | --- |
| C[C@@H]1[C@H](O)[C@@H](C)/C=C/C=C/C=C/C=C/C=C/C=C/C=C/[C@H](O[C@@H]2O[C@H](C)[C@@H](O)[C@H](N)[C@@H]2O)C[C@@H]2O[C@](O)(C[C@@H](O)C[C@@H](O)[C@H](O)CC[C@@H](O)C[C@@H](O)CC(=O)O[C@H]1C)C[C@H](O)[C@H]2C(=O)O [AMP, Amphotericin B] |  |  |  |  |  |  |  |  |  |  |  |  |  |  |  |  |  |  |  |  | minimum inhibitory concentration (MIC) ([1]; C. auris CDC #0387): 0.75 µg/mL (≈ 0.812 µM); minimum inhibitory concentration (MIC) ([2]; C. albicans ATCC 90028): 0.13 µg/mL (≈ 0.141 µM); minimum inhibitory concentration (MIC) ([3]; C. glabrata CDC #0318): 0.19 µg/mL (≈ 0.206 µM); minimum inhibitory concentration (MIC) ([4]; C. auris CDC #0389): 4 µg/mL (≈ 4.33 µM); minimum inhibitory concentration (MIC) ([5]; C. auris CDC #0383): 0.38 µg/mL (≈ 0.411 µM); minimum inhibitory concentration (MIC) ([6]; C. auris CDC #0381): 0.13 µg/mL (≈ 0.141 µM); minimum inhibitory concentration (MIC) ([7]; C. glabrata CDC #0315): 0.38 µg/mL (≈ 0.411 µM); minimum inhibitory concentration (MIC) ([8]; C. glabrata CDC #0325): 0.25 µg/mL (≈ 0.271 µM); minimum inhibitory concentration (MIC) ([9]; C. auris CDC #0384): 0.5 µg/mL (≈ 0.541 µM); minimum inhibitory concentration (MIC) ([10]; C. albicans MYA-574): 0.13 µg/mL (≈ 0.141 µM); minimum inhibitory concentration (MIC) ([11]; C. auris CDC #0390): 4 µg/mL (≈ 4.33 µM); minimum inhibitory concentration (MIC) ([12]; C. auris CDC #0385): 0.5 µg/mL (≈ 0.541 µM); minimum inhibitory concentration (MIC) [13]: 0.13 µg/mL (≈ 0.141 µM); minimum inhibitory concentration (MIC) ([14]; C. glabrata CDC #0321): 0.09 µg/mL (≈ 0.0974 µM) |
| CCCCCOc1ccc(-c2ccc(-c3ccc(C(=O)N[C@H]4C[C@@H](O)[C@@H](O)NC(=O)[C@@H]5[C@@H](O)[C@@H](C)CN5C(=O)[C@H]([C@@H](C)O)NC(=O)[C@H]([C@H](O)[C@@H](O)c5ccc(O)cc5)NC(=O)[C@@H]5C[C@@H](O)CN5C(=O)[C@H]([C@@H](C)O)NC4=O)cc3)cc2)cc1 [ANI, Anidulafungin] ({pTerphenylCO(4''-OnC5H11)}-[Orn(4R-OH,5R-OH)]T[Hyp][hTyr(3S-OH,4S-OH)]T[Pro(3S-OH,4S-Me)]; lactam 1-C) | 0.5 (≈ 0.438 µM) | 0.01 (≈ 0.00877 µM) | 4 (≈ 3.51 µM) | 1 (≈ 0.877 µM) | 1 (≈ 0.877 µM) | 0.25 (≈ 0.219 µM) |  |  |  |  |  |  |  |  |  |  |  |  |  |  | MIC [7]: 2 µg/mL (≈ 1.75 µM); MIC [8]: 4 µg/mL (≈ 3.51 µM); MIC [9]: 2 µg/mL (≈ 1.75 µM); MIC [11]: 1 µg/mL (≈ 0.877 µM); MIC [12]: 1 µg/mL (≈ 0.877 µM); MIC [14]: 2 µg/mL (≈ 1.75 µM) |
| CC[C@H](C)C[C@H](C)CCCCCCCCC(=O)N[C@H]1C[C@@H](O)[C@@H](NCCN)NC(=O)[C@@H]2[C@@H](O)CCN2C(=O)[C@H]([C@H](O)CCN)NC(=O)[C@H]([C@H](O)[C@@H](O)c2ccc(O)cc2)NC(=O)[C@@H]2C[C@@H](O)CN2C(=O)[C@H]([C@@H](C)O)NC1=O [CAS, Caspofungin] |  |  |  |  |  |  | 0.25 (≈ 0.229 µM) | 0.5 (≈ 0.457 µM) | 16 (≈ 14.6 µM) | 0.5 (≈ 0.457 µM) | 0.25 (≈ 0.229 µM) | 0.13 (≈ 0.119 µM) | 16 (≈ 14.6 µM) | > 16 | 16 (≈ 14.6 µM) | 0.5 (≈ 0.457 µM) | 0.5 (≈ 0.457 µM) | 0.5 (≈ 0.457 µM) | 0.5 (≈ 0.457 µM) | 4 (≈ 3.66 µM) |  |
| OC(Cn1cncn1)(Cn1cncn1)c1ccc(F)cc1F [FLC, Fluconazole] |  |  |  |  |  |  | 8 (≈ 26.1 µM) | 0.25 (≈ 0.816 µM) | 32 (≈ 104 µM) | 256 (≈ 836 µM) | 128 (≈ 418 µM) | 4 (≈ 13.1 µM) | 4 (≈ 13.1 µM) | 128 (≈ 418 µM) | 128 (≈ 418 µM) | 64 (≈ 209 µM) | > 256 | > 256 | 8 (≈ 26.1 µM) | 64 (≈ 209 µM) |  |
| CCCCCOc1ccc(-c2cc(-c3ccc(C(=O)N[C@H]4C[C@@H](O)[C@@H](O)NC(=O)[C@@H]5[C@@H](O)[C@@H](C)CN5C(=O)[C@H]([C@H](O)CC(N)=O)NC(=O)[C@H]([C@H](O)[C@@H](O)c5ccc(O)c(OS(=O)(=O)O)c5)NC(=O)[C@@H]5C[C@@H](O)CN5C(=O)[C@H]([C@@H](C)O)NC4=O)cc3)no2)cc1 [MF, Micafungin] (X1-[Orn(4R-OH,5R-OH)]T[Hyp][hTyr(3S-OH,4S-OH,3'-OSO3H)][Gln(3R-OH)][Pro(3S-OH,4S-Me)]; lactam 1-C) | 0.5 (≈ 0.394 µM) | 0.02 (≈ 0.0157 µM) | 4 (≈ 3.15 µM) | 0.25 (≈ 0.197 µM) | 1 (≈ 0.787 µM) | 0.13 (≈ 0.102 µM) |  |  |  |  |  |  |  |  |  |  |  |  |  |  | MIC [7]: 4 µg/mL (≈ 3.15 µM); MIC [8]: 4 µg/mL (≈ 3.15 µM); MIC [9]: 2 µg/mL (≈ 1.57 µM); MIC ([10]; MYA574, read-out: minimum inhibitory concentration (MIC)): 0.06 µg/mL (≈ 0.0472 µM); MIC [11]: 0.25 µg/mL (≈ 0.197 µM); MIC [12]: 0.5 µg/mL (≈ 0.394 µM); MIC [14]: 1 µg/mL (≈ 0.787 µM) |
| C[C@@H](c1ncncc1F)[C@](O)(Cn1cncn1)c1ccc(F)cc1F [VRC, Voriconazole] |  |  |  |  |  |  | 0.06 (≈ 0.172 µM) | 0.01 (≈ 0.0286 µM) | 1 (≈ 2.86 µM) | 0.4 (≈ 1.15 µM) | 4 (≈ 11.5 µM) | 0.03 (≈ 0.0859 µM) | 0.25 (≈ 0.716 µM) | 16 (≈ 45.8 µM) | 1 (≈ 2.86 µM) | 0.25 (≈ 0.716 µM) | 8 (≈ 22.9 µM) | 16 (≈ 45.8 µM) | 0.5 (≈ 1.43 µM) | 2 (≈ 5.73 µM) |  |
